We go through 23 compounds from patent publication US20050197350A1, “Novel quinoline, tetrahydroquinazoline, and pyrimidine derivatives and methods of treatment related to the use thereof” (TAISHO PHARMACEUTICAL CO., LTD., priority 2003, published 2005).

The structures appear in SMILES notation.

The first assay deals with MCH receptors. As to the kind of experiment: MCH receptor activity class (method not given). The following applies: MCH receptor activity class 1-3 (percent of control at 10^-7 M or IC50).
`Cc1cc(C)c(NC(=S)N[C@H]2CC[C@@H](Nc3nccc(N(C)C)n3)CC2)c(C)c1` [compound 2320, N-(cis-4-{[4-(dimethylamino)pyrimidin-2-yl]amino}cyclohexyl)-N′-mesitylthiourea]: the class is 1 (Class 1: The value of percent of control at 10^−7 M was less than 40% or the value of IC50 was less than 50 nM.).

The assay is the same for the next values; noted with them: MCH receptor; class by percent of control at 10^-7 M or IC50.
For the compound `CN(C)c1cc(N[C@H]2CC[C@@H](NC(=O)c3cc4ccccc4s3)CC2)nc2ccccc12` [compound 94], the class is recorded as 3 (Class 3 The value of percent of control at 10^−7 M was more than 60% or the value of IC50 was more than 200 nM.). Consider `CN(C)c1cc(N[C@H]2CC[C@@H](NC(=O)c3cccc(C#N)c3)CC2)nc2ccccc12` [compound 29], for which the class was 2 (Class 2: The value of percent of control at 10^−7 M was from 40% to 60% or the value of IC′50 was from 50 nM to 200 nM.).

Consider `Cc1cc(C(=O)N[C@H]2CC[C@@H](Nc3cc(N(C)C)c4ccccc4n3)CC2)ccc1F` [compound 81, N-(cis-4-{[4-(dimethylamino)quinolin-2-yl]amino}cyclohexyl)-4-fluoro-3-methylbenzamide], for which the class is 1 (Class 1: The value of percent of control at 10^−7 M was less than 40% or the value of IC50 was less than 50 nM.).

Still in this assay, the particulars now being: activity class 1-3: percent of control at 10^-7 M or IC50.
For the compound `Cc1cc(C)c(NC(=O)N[C@H]2CC[C@@H](Nc3nc4c(c(N(C)C)n3)CCCC4)CC2)c(C)c1` [compound 1667], the class is listed as 1 (Class 1: The value of percent of control at 10^−7 M was less than 40% or the value of IC50 was less than 50 nM.).

Still in this assay, the particulars now being: activity class per percent of control at 10^-7 M or IC50.
As to `COc1ccc(C(=O)N[C@H]2CC[C@@H](Nc3nc4c(c(N(C)C)n3)CCCC4)CC2)cc1OCc1ccccc1` [compound 1026], the class is listed as 1 (Class 1: The value of percent of control at 10^−7 M was less than 40% or the value of IC50 was less than 50 nM.).

The same assay, now with this note: class by percent of control at 10^-7 M or IC50.
For the compound `CN(C)c1ccnc(N[C@H]2CC[C@@H](CNCc3ccccc3OC(F)F)CC2)n1` [compound 1293], the class is listed as 3 (Class 3 The value of percent of control at 10^−7 M was more than 60% or the value of IC50 was more than 200 nM.). Turning to `CC(Oc1ccccc1)C(=O)NC[C@H]1CC[C@@H](Nc2nc3c(c(N(C)C)n2)CCCC3)CC1` (relative stereo) [compound 611], the class is 3 (Class 3 The value of percent of control at 10^−7 M was more than 60% or the value of IC50 was more than 200 nM.). Consider `CCOC(=O)c1ccc(NC(=O)N[C@H]2CC[C@@H](Nc3nc4c(c(N(C)C)n3)CCCC4)CC2)cc1` [compound 1823], for which the class is 3 (Class 3 The value of percent of control at 10^−7 M was more than 60% or the value of IC50 was more than 200 nM.). Regarding `CN(C)c1ccnc(N[C@H]2CC[C@@H](NC(=O)c3cc(C(C)(C)C)nn3C)CC2)n1` [compound 304], the class was 3 (Class 3 The value of percent of control at 10^−7 M was more than 60% or the value of IC50 was more than 200 nM.). Consider `Cc1c(C(=O)N[C@H]2CC[C@@H](Nc3nccc(N(C)C)n3)CC2)cc(-c2ccccc2)n1-c1ccccc1` [compound 890, N-(cis-4-{[4-(dimethylamino)pyrimidin-2-yl]amino}cyclohexyl)-2-methyl-1,5-diphenyl-1H-pyrrole-3-carboxamide], for which the class is 1 (Class 1: The value of percent of control at 10^−7 M was less than 40% or the value of IC50 was less than 50 nM.).

Turning to `COc1cccc(CC(=O)N[C@H]2CC[C@@H](Nc3nccc(N(C)C)n3)CC2)c1` [compound 285], the class is listed as 3 (Class 3 The value of percent of control at 10^−7 M was more than 60% or the value of IC50 was more than 200 nM.). With `CN(C)c1ccnc(N[C@H]2CC[C@@H](NC(=O)c3ccc(Cl)c([N+](=O)[O-])c3)CC2)n1` [compound 245, 4-chloro-N-(cis-4-{[4-(dimethylamino)pyrimidin-2-yl]amino}cyclohexyl)-3-nitrobenzamide], the class is given as 1 (Class 1: The value of percent of control at 10^−7 M was less than 40% or the value of IC50 was less than 50 nM.). Turning to `CN(C)c1cc(N[C@H]2CC[C@@H](CNC(=O)Cc3c(Cl)ccc(Cl)c3Cl)CC2)nc2ccccc12` [compound 789, N-[(cis-4-{[4-(dimethylamino)quinolin-2-yl]amino}cyclohexyl)methyl]-2-(2,3,6-trichlorophenyl)acetamide], the class was 1 (Class 1: The value of percent of control at 10^−7 M was less than 40% or the value of IC50 was less than 50 nM.). As for `CN(C)c1cc(N[C@H]2CC[C@@H](NC(=O)c3cc(-c4ccccc4)nc4ccccc34)CC2)nc2ccccc12` [compound 757, N-(cis-4-{[4-(dimethylamino)quinolin-2-yl]amino}cyclohexyl)-2-phenylquinoline-4-carboxamide], the class is listed as 2 (Class 2: The value of percent of control at 10^−7 M was from 40% to 60% or the value of IC′50 was from 50 nM to 200 nM.). Take `Cc1oc(-c2ccccc2)cc1CNC[C@H]1CC[C@@H](Nc2nc3c(c(N(C)C)n2)CCCC3)CC1` [compound 1434]: the class is 3 (Class 3 The value of percent of control at 10^−7 M was more than 60% or the value of IC50 was more than 200 nM.). As to `Cc1ccc([N+](=O)[O-])c(NC(=O)NC[C@H]2CC[C@@H](Nc3nc4c(c(N(C)C)n3)CCCC4)CC2)c1C` [compound 2489], the class is given as 2 (Class 2: The value of percent of control at 10^−7 M was from 40% to 60% or the value of IC′50 was from 50 nM to 200 nM.). For the compound `CN(C)c1ccnc(N[C@H]2CC[C@@H](CNC(=O)Cc3ccccc3)CC2)n1` [compound 390], the class was 3 (Class 3 The value of percent of control at 10^−7 M was more than 60% or the value of IC50 was more than 200 nM.).

The same assay, now with this note: class by percent of control at 10^−7 M or IC50.
Turning to `COc1cccc([C@H](C)NC(=O)[C@H]2CC[C@@H](Nc3ncc(C)c(N(C)C)n3)CC2)c1` [compound 2776, cis-4-{[4-(dimethylamino)-5-methylpyrimidin-2-yl]amino}-N-[(1S)-1-(3-methoxyphenyl)ethyl]cyclohexanecarboxamide], the class is given as 1 (Class 1: The value of percent of control at 10^−7 M was less than 40% or the value of IC50 was less than 50 nM.). Turning to `Cc1cnc(N[C@H]2CC[C@@H](NC(=O)c3ccc(C(C)(C)C)cc3)CC2)nc1N(C)C` [compound 2905], the class is given as 1 (Class 1: The value of percent of control at 10^−7 M was less than 40% or the value of IC50 was less than 50 nM.). For `Cc1cnc(N[C@H]2CC[C@@H](NC(=O)N(C)c3cccc(Cl)c3)CC2)nc1N(C)C` [compound 3021, N-(3-chlorophenyl)-N′-(cis-4-{[4-(dimethylamino)-5-methylpyrimidin-2-yl]amino}cyclohexyl)-N-methylurea], the class is 1 (Class 1: The value of percent of control at 10^−7 M was less than 40% or the value of IC50 was less than 50 nM.). Same read-out and setting: in the case of `Cc1nc(N[C@H]2CC[C@@H](NC(=O)C(O)c3cc(F)cc(F)c3)CC2)nc(N(C)C)c1C` (relative stereo) [compound 2829, 2-(3,5-difluorophenyl)-N-(cis-4-{[4-(dimethylamino)-5,6-dimethylpyrimidin-2-yl]amino}cyclohexyl)-2-hydroxyacetamide] it was 2 (Class 2: The value of percent of control at 10^−7 M was from 40% to 60% or the value of IC′50 was from 50 nM to 200 nM.). Consider `Cc1nc(N[C@H]2CC[C@@H](NC(=O)c3ccc(Cl)c(Cl)c3)CC2)nc(N(C)C)c1C` [compound 2842, 3,4-dichloro-N-(cis-4-{[4-(dimethylamino)-5,6-dimethylpyrimidin-2-yl]amino}cyclohexyl)benzamide], for which the class is listed as 1 (Class 1: The value of percent of control at 10^−7 M was less than 40% or the value of IC50 was less than 50 nM.).
